# Measurements reported in US10000577B2, “Treatment of otitis media” (Research Institute at Nationwide Children's Hospital, priority 2015, dated 2018).
# “Also recorded” adds a separate entry of the source.
# System: NHBE cells
# Assay: Inhibition of Arp2/3 - normal human bronchial epithelial cell (NHBE) infection model with GFP-expressing NTHI
# Type: cell-based
# Conditions: 200 μM CK-636, 24 or 48 hours
# Description: Inhibition of Arp2/3—Normal human bronchial epithelial cell (NHBE) infection model: NHBE cells (Lonza, Walkersville, Md.) were seeded into 24-well plates containing sterile coverslips and grown in Bronchial Epithelial Cell Growth Medium (BEGM; Lonza, Walkersville, Md.) at 37° C. in a 5% CO2 atmosphere to near confluency. […] The next morning the colonies were re-suspended in brain heart infusion broth supplemented with 2 μg/ml heme and 2 μg/ml β-NAD (sBHI) and grown at 37° C. with shaking at 180 rpm until the cells were in mid-log phase (˜5 generations). Prior to infection, the BEGM was removed from the NHBE cells and replaced with BEGM that contained either 200 μM CK-636 (Sigma-Aldrich, St. Louis, Mo.), an inhibitor of Arp2/3 function, or 0.2% DMSO, the vehicle for CK-636. Strain 86-028NP(pGM1.1) was then added to the NHBE cells at a multiplicity of infection of 50 bacteria to one NHBE cell and incubated at 37° C. in a 5% CO2 atmosphere for one hour. The NHBE cells were then washed twice with DPBS before being placed back in BEGM that contained either 200 μM CK-636 or 0.2% DMSO. Cells were incubated at 37° C. in a 5% CO2 atmosphere for 24 or 48 hours. At each time point, cells were stained with WGA-Alexa Fluor 594, fixed in 4% paraformaldehyde (Electron Microscopy Sciences, Hatfield, Pa.) in DPBS, permeabilized with 0.1% Triton X-100 then stained with phalloidin-Alexa Fluor 350. […]
structure (smiles),measurement,setting,value
Cc1[nH]c2ccccc2c1CCNC(=O)c1cccs1 [CK-636],NTHI invasion / bacterial uptake into epithelial cells (fluorescent microscopy),"NTHI strain 86-028NP(pGM1.1), MOI 50, versus 0.2% DMSO vehicle",reduced NTHI invasion into epithelial cells; also recorded: increase in the number of extracellular bacteria indicating that bacterial uptake was reduced
same,"actin structure of NHBE cells (phalloidin staining, fluorescent microscopy)",NTHI-infected NHBE cells,gross morphological changes in actin structure
